According to patent publication EP0373216A1, “CEPHALOSPORIN COMPOUNDS OR THEIR SALTS, PROCESS FOR THEIR PREPARATION, AND PARMACEUTICAL COMPOSITIONS” (TEIJIN LIMITED, priority 1987, dated 1988):
In brackets after ≈: the same amount, converted by molar mass.

Columns and labels:
Assay in all cases: In vitro antibacterial activity, agar disc dilution method
Assay type in all cases: cell-based
B. subtilis ATCC 6633 = details: Bacillus subtilis, ATCC6633; B. subtilis ATCC 6633; Mueller Hinton agar, 10^6/ml, 37°C for 16 hours; read-out: minimum growth inhibitory concentration (MIC)
Protocol: (§1) An in vitro antibacterial activity was measured by an agar disc dilution method.
(§2) Varied test bacteria were cultivated overnight in triptophane-soybroth. A Mueller Hinton agar containing the compound of this invention in varied concentrations was streaked with one platinum loopful of each of the bacteria (number of living cells 10^6/ml).

E. cloacae 963 = details: Enterobacter cloacae; E. cloacae 963; Mueller Hinton agar, 10^6/ml, 37°C for 16 hours; read-out: minimum growth inhibitory concentration (MIC)
Protocol: as §1, §2

E. coli K12C600 = details: Escherichia coli; E. coli K12C600; Mueller Hinton agar, 10^6/ml, 37°C for 16 hours; read-out: minimum growth inhibitory concentration (MIC)
Protocol: as §1, §2

K. pneumoniae PC I 602 = details: Klebsiella pneumoniae, PCI602; K. pneumoniae PC I 602; Mueller Hinton agar, 10^6/ml, 37°C for 16 hours; read-out: minimum growth inhibitory concentration (MIC)
Protocol: as §1, §2

M. euteus ATCC 9341 = details: M. euteus ATCC 9341; Mueller Hinton agar, 10^6/ml, 37°C for 16 hours; read-out: minimum growth inhibitory concentration (MIC)
Protocol: as §1, §2

P. aeruginosa NCTC 1049 = details: Pseudomonas aeruginosa, NCTC1049; P. aeruginosa NCTC 1049; Mueller Hinton agar, 10^6/ml, 37°C for 16 hours; read-out: minimum growth inhibitory concentration (MIC)
Protocol: as §1, §2

P. morganii IFO 3445 = details: Morganella morganii, IFO3445; P. morganii IFO 3445; Mueller Hinton agar, 10^6/ml, 37°C for 16 hours; read-out: minimum growth inhibitory concentration (MIC)
Protocol: as §1, §2

P. rettgeric IFO3850 = details: P. rettgeric IFO3850; Mueller Hinton agar, 10^6/ml, 37°C for 16 hours; read-out: minimum growth inhibitory concentration (MIC)
Protocol: as §1, §2

P. vulgalis OX-19 = details: P. vulgalis OX-19; Mueller Hinton agar, 10^6/ml, 37°C for 16 hours; read-out: minimum growth inhibitory concentration (MIC)
Protocol: as §1, §2

S. aureus Terajima = details: Staphylococcus aureus; S. aureus Terajima; Mueller Hinton agar, 10^6/ml, 37°C for 16 hours; read-out: minimum growth inhibitory concentration (MIC)
Protocol: as §1, §2

S. enteritidis G14 = details: Salmonella enterica; S. enteritidis G14; Mueller Hinton agar, 10^6/ml, 37°C for 16 hours; read-out: minimum growth inhibitory concentration (MIC)
Protocol: as §1, §2

S. marcescens I AM 1184 = details: Serratia marcescens, IAM1184; S. marcescens I AM 1184; Mueller Hinton agar, 10^6/ml, 37°C for 16 hours; read-out: minimum growth inhibitory concentration (MIC)
Protocol: as §1, §2

S. pyogenes Cook = details: Streptococcus pyogenes; S. pyogenes Cook; Mueller Hinton agar, 10^6/ml, 37°C for 16 hours; read-out: minimum growth inhibitory concentration (MIC)
Protocol: as §1, §2

S. typhic 901 = details: Mueller Hinton agar, 10^6/ml, 37°C for 16 hours, read-out: minimum growth inhibitory concentration (MIC)
Protocol: as §1, §2

SMILES | MIC (B. subtilis ATCC 6633) | MIC (E. cloacae 963) | MIC (E. coli K12C600) | MIC (K. pneumoniae PC I 602) | MIC (M. euteus ATCC 9341) | MIC (P. aeruginosa NCTC 1049) | MIC (P. morganii IFO 3445) | MIC (P. rettgeric IFO3850) | MIC (P. vulgalis OX-19) | MIC (S. aureus Terajima) | MIC (S. enteritidis G14) | MIC (S. marcescens I AM 1184) | MIC (S. pyogenes Cook) | MIC (S. typhic 901)
Nc1nc(/C(=N/Oc2ccccc2)C(=O)N[C@@H]2C(=O)N3C(C(=O)[O-])=C(C[n+]4cc(C(=O)O)c5cc(O)c(O)cc5c4)CS[C@H]23)cs1 [Compound VI, (6R,7R)-7-[(Z)-2-(2-amino-1,3-thiazol-4-yl)-2-phenoxyiminoacetamide]-3-(4-carboxy-6,7-dihydroxy-2-isoquinolinium)methyl-3-cephem-4-carboxylate] | 1.6 µg/mL (≈ 2.41 µM) | 0.05 µg/mL (≈ 0.0755 µM) | 0.02 µg/mL (≈ 0.0302 µM) | 0.02 µg/mL (≈ 0.0302 µM) | 0.8 µg/mL (≈ 1.21 µM) | 3.1 µg/mL (≈ 4.68 µM) | 0.02 µg/mL (≈ 0.0302 µM) | 0.02 µg/mL (≈ 0.0302 µM) | < 0.01 µg/mL | 3.1 µg/mL (≈ 4.68 µM) | < 0.01 µg/mL | < 0.01 µg/mL | 0.8 µg/mL (≈ 1.21 µM) | < 0.01 µg/mL
Nc1nc(/C(=N/Oc2ccc(CC(=O)O)cc2)C(=O)N[C@@H]2C(=O)N3C(C(=O)[O-])=C(C[n+]4ccc5cc(O)c(O)cc5c4)CS[C@H]23)cs1 [Compound V] | 1.6 µg/mL (≈ 2.36 µM) | 0.05 µg/mL (≈ 0.0739 µM) | 0.02 µg/mL (≈ 0.0296 µM) | 0.03 µg/mL (≈ 0.0443 µM) | 1.6 µg/mL (≈ 2.36 µM) | 0.05 µg/mL (≈ 0.0739 µM) | < 0.01 µg/mL | < 0.01 µg/mL | < 0.01 µg/mL | 1.6 µg/mL (≈ 2.36 µM) | 0.02 µg/mL (≈ 0.0296 µM) | 0.8 µg/mL (≈ 1.18 µM) | 0.8 µg/mL (≈ 1.18 µM) | 0.02 µg/mL (≈ 0.0296 µM)
Nc1nc(/C(=N/Oc2ccccc2)C(=O)N[C@@H]2C(=O)N3C(C(=O)[O-])=C(C[n+]4cc(C(=O)O)c5cc(O)c(O)cc5c4Cl)CS[C@H]23)cs1 [Compound VII, (6R,7R)-7-[(Z)-2-(2-amino-1,3-thiazol-4-yl)-2-phenoxyiminoacetamide]-3-(l-chloro-4-carboxy-6,7-dihydroxy-2-isoquinolinium)methyl-3-cephem-4-carboxylate] | 1.6 µg/mL (≈ 2.3 µM) | 0.1 µg/mL (≈ 0.143 µM) | 0.03 µg/mL (≈ 0.043 µM) | 0.03 µg/mL (≈ 0.043 µM) | 0.8 µg/mL (≈ 1.15 µM) | 1.6 µg/mL (≈ 2.3 µM) | 0.03 µg/mL (≈ 0.043 µM) | 0.03 µg/mL (≈ 0.043 µM) | 0.02 µg/mL (≈ 0.0287 µM) | 3.1 µg/mL (≈ 4.45 µM) | 0.02 µg/mL (≈ 0.0287 µM) | 0.03 µg/mL (≈ 0.043 µM) | 0.4 µg/mL (≈ 0.574 µM) | 
Nc1nc(/C(=N/Oc2ccc(Cl)cc2)C(=O)N[C@@H]2C(=O)N3C(C(=O)[O-])=C(C[n+]4ccc5cc(O)c(O)cc5c4)CS[C@H]23)cs1 [Compound III] | 0.4 µg/mL (≈ 0.612 µM) | 0.03 µg/mL (≈ 0.0459 µM) | < 0.01 µg/mL | < 0.01 µg/mL | 0.2 µg/mL (≈ 0.306 µM) | 0.8 µg/mL (≈ 1.22 µM) | 0.01 µg/mL (≈ 0.0153 µM) | < 0.01 µg/mL | < 0.01 µg/mL | 0.8 µg/mL (≈ 1.22 µM) | < 0.01 µg/mL | < 0.01 µg/mL | 0.1 µg/mL (≈ 0.153 µM) | < 0.01 µg/mL
CC(=O)Oc1cc2cc[n+](CC3=C(C(=O)[O-])N4C(=O)[C@@H](NC(=O)/C(=N\Oc5ccccc5)c5csc(N)n5)[C@H]4SC3)cc2cc1O [Compound X] | 0.8 µg/mL (≈ 1.21 µM) | < 0.01 µg/mL | < 0.01 µg/mL | < 0.01 µg/mL | 1.6 µg/mL (≈ 2.42 µM) | 0.1 µg/mL (≈ 0.151 µM) | < 0.01 µg/mL | < 0.01 µg/mL | < 0.01 µg/mL | 1.6 µg/mL (≈ 2.42 µM) | 0.01 µg/mL (≈ 0.0151 µM) | < 0.01 µg/mL | 0.8 µg/mL (≈ 1.21 µM) | < 0.01 µg/mL
Nc1nc(/C(=N/Oc2ccccc2Cl)C(=O)N[C@@H]2C(=O)N3C(C(=O)[O-])=C(C[n+]4ccc5cc(O)c(O)cc5c4)CS[C@H]23)cs1 [Compound II, (6R,7R)-7-[(Z)-2-(2-amino-1,3-thiazol-4-yl)-2-(o-chlorophenoxyimino)-acetamide]-3-(6,7-dihydroxy-2-isoquinolinium)methyl-3-cephem-4-carboxylate] | 1.6 µg/mL (≈ 2.45 µM) | < 0.01 µg/mL | < 0.01 µg/mL | < 0.01 µg/mL | 0.8 µg/mL (≈ 1.22 µM) | 0.8 µg/mL (≈ 1.22 µM) | < 0.01 µg/mL | < 0.01 µg/mL | < 0.01 µg/mL | 0.2 µg/mL (≈ 0.306 µM) | < 0.01 µg/mL | < 0.01 µg/mL | 0.2 µg/mL (≈ 0.306 µM) | < 0.01 µg/mL
CC(=O)Oc1cc2cc[n+](CC3=C(C(=O)[O-])N4C(=O)[C@@H](NC(=O)/C(=N\Oc5ccccc5)c5csc(N)n5)[C@H]4SC3)cc2cc1OC(C)=O [Compound IX, (6R,7R)-7-[(Z)-2-(2-amino-1,3-thiazol-4-yl)-2-phenoxyiminoacetamide]-3-(6,7-diacetoxy-2-isoquinolinium)methyl-3-cephem-4-carboxylate] | 0.8 µg/mL (≈ 1.14 µM) | 0.02 µg/mL (≈ 0.0285 µM) | 0.01 µg/mL (≈ 0.0142 µM) | < 0.01 µg/mL | 1.6 µg/mL (≈ 2.28 µM) | 0.1 µg/mL (≈ 0.142 µM) | < 0.01 µg/mL | < 0.01 µg/mL | < 0.01 µg/mL | 1.6 µg/mL (≈ 2.28 µM) | 0.02 µg/mL (≈ 0.0285 µM) | < 0.01 µg/mL | 0.4 µg/mL (≈ 0.569 µM) | < 0.01 µg/mL
CC(C)(O/N=C(\C(=O)N[C@@H]1C(=O)N2C(C(=O)[O-])=C(C[n+]3ccc4cc(O)c(O)cc4c3)CS[C@H]12)c1csc(N)n1)C(=O)O [Compound A, (6R,7R)-7-[(Z)-2-(2-amino-l,3-thiazol-4-yl)-2-(2-carboxypropyl-2-yloxyimino)acetamide]-3-(6,7-dihydroxy-2-isoquinolinium)methyl-3-cephem-4-carboxylate, reference compound] | 0.4 µg/mL (≈ 0.636 µM) | < 0.01 µg/mL | < 0.01 µg/mL | < 0.01 µg/mL | 0.2 µg/mL (≈ 0.318 µM) | 0.02 µg/mL (≈ 0.0318 µM) | < 0.01 µg/mL | < 0.01 µg/mL | < 0.01 µg/mL | 6.2 µg/mL (≈ 9.86 µM) | < 0.01 µg/mL | < 0.01 µg/mL | 1.6 µg/mL (≈ 2.55 µM) | < 0.01 µg/mL
Nc1nc(/C(=N/Oc2ccc(-c3ccccc3)cc2)C(=O)N[C@@H]2C(=O)N3C(C(=O)[O-])=C(C[n+]4ccc5cc(O)c(O)cc5c4)CS[C@H]23)cs1 [Compound IV, (6R,7R)-7-[(Z)-2-(2-amino-1,3-thiazol-4-yl)-2-(p-phenylphenoxy)iminoacetamide]-3-(6,7-dihydroxy-2-isoquinolinium)methyl-3-cephem-4-carboxylate] | 1.6 µg/mL (≈ 2.3 µM) | < 0.01 µg/mL | 0.02 µg/mL (≈ 0.0288 µM) | 0.02 µg/mL (≈ 0.0288 µM) | 0.8 µg/mL (≈ 1.15 µM) | 0.8 µg/mL (≈ 1.15 µM) | < 0.01 µg/mL | < 0.01 µg/mL | < 0.01 µg/mL | 1.6 µg/mL (≈ 2.3 µM) | 0.02 µg/mL (≈ 0.0288 µM) | < 0.01 µg/mL | 0.4 µg/mL (≈ 0.576 µM) | < 0.01 µg/mL
